Laboratory results taken from patent publication US20040034216A1, “3-Nitrogen-6,7-dioxygen steroids and uses related thereto” (priority 2003, published 2004).

Assays:
Jurkat clone E6.1 cells = assay: Antigen-induced calcium flux in anti-CD3 stimulated Jurkat cells (Fura 2AM); format: cell-based; settings: Homo sapiens, Jurkat, read-out: Calcium (% inhibition at 20 μM), 20 μM; anti-CD3 mAb stimulated Jurkat clone E6.1 cells
Text: Elevation of cytoplasmic calcium concentration is a common and crucial event which follows the activation of many types of cell surface receptors. Increases in intracellular calcium that occur following agonist activation of inositol lipid hydrolysis are the results of calcium release from the endoplasmic reticulum and the influx of calcium through the plasma membrane. Increases in cytosolic calcium concentration are involved in many important cellular responses in the inflammatory process including adhesion, motility, gene expression, proliferation, and degranulation. Changes in intracellular calcium concentrations can affect both short and long term cellular responses. An assay method to evaluate a test compound's impact on calcium flux is provided as follows.
The resulting supernatants are discarded and each pellet is washed in 10 mL HBSS. Cell suspensions are accumulated and centrifuged for 5 minutes at 900 RPM to form a cell pellet. The resulting supernatant is discarded and the pellet is resuspended in HBSS at 1×10^7cells/mL. The cell suspension is transferred to a 20 mm petri dish and incubated at 37° C., 5% CO2 for 20 minutes.
One volume of Fura 2AM is mixed to one volume of detergent Pluronic F127. Cells are labeled with 4 μL of probe solution to each mL of cell suspension. The petri dish is wrapped in aluminum foil to protect from light and placed on a plate shaker for 30 minutes at room temperature.
The following steps are done in the laminar flow hood with the fluorescent lights turned off. The petri dish is removed from the shaker and the labeled cell suspension is transferred to a 15 mL conical tube and washed twice with HBSS as above. The cell pellet is resuspended in 12 mL HBSS and left wrapped in foil for 30 minutes at room temperature. The labeled cell suspension is aliquoted (100 μL/well) into a Dynex 96 well white opaque tissue culture plate. […] Selected compounds were tested for dose related activity. Test samples and activator (anti-CD3 mAb at final concentration of 4 μg/mL, PharMingen) are added manually (50 μL), such that the minimum time to acquire the first data point after stimulation is approximately 30 seconds. The calcium influx response to anti-CD3 mAb is measured as an “end point” assay. The entire plate is read in 100 seconds using a kinetic of 1 second per well.
The plate is read before the addition of anti-CD3 to monitor non-specific effect of samples/drugs. Fluorescence emission is measured at 510 nm with excitation alternating between 340 and 380 every second using an excitation/emission filter pair. Data from these dual wavelengths are represented as a ratio of 2 excitations wavelengths. This ratio is independent of intracellular dye and cell concentrations, enabling real comparison between experiments.

[1] = Pharmacokinetic profile in the rat; format: in vivo
[2] = tested on: Rat Mast Cell Line (RBL-2H3); assay: Antigen-induced release of hexosaminidase from a rat mast cell line (RBL-2H3); format: cell-based; settings: Rattus norvegicus, RBL-2H3, inhibition of antigen (DNP-HSA)-induced hexosaminidase release, tested at 0.3, 3, 10 and 30 μM, read-out: Hex IC50
Description: The anti-allergic effects of a compound of the present invention was evaluated by measuring its effect on antigen-induced secretion of hexosaminidase from a passively sensitized rat mast cell line. The ability of a test compound to inhibit the release of mast cell granule contents, e.g., histamine and hexosaminidase, is indicative of the anti-allergy and/or anti-asthma activity of the compound. Hexosaminidase is released from the mast cell granule along with histamine and other mediators during antigen challenge. The test is performed as follows.
RBL-2H3 cells are grown in culture and passively sensitized for 1 hour at 37° C. to dinitrophenol (DNP) using anti-human-DNP (IgE). Cells are incubated with test compound for 30 minutes at 37° C. and stimulated with 0.5 μg/ml DNP-HSA (antigen) for 30 minutes. Aliquots of the supernatant are removed and used to measure the amount of hexosaminidase released during challenge with the antigen. The amount of hexosaminidase present in the supernatant is determined colorimetrically by monitoring the enzymatic metabolism of p-nitrophenyl-N-acetyl-β-D-glucosaminide (p-NAG) over a period of 60 minutes at 405 nm. The effect of each test compound is determined as a percentage of the antigen-induced response (minus background release) obtained in the presence of DMSO alone. These values are used to determine the degrees of inhibition of antigen-induced hexosaminidase release from the cells.

[3] = tested on: sensitized Brown Norway rats; assay: Ovalbumin-induced accumulation of inflammatory cells in lung lavage fluid (allergen-induced lung inflammation); format: in vivo, rat; settings: p.o.
Description: The ability of a compound to inhibit the allergen-induced accumulation of inflammatory cells such as eosinophils and neutrophils in the lavage fluid obtained from sensitized animals is indicative of that compound's anti-asthma activity. […] The test is conducted as follows.
Male Brown Norway rats are sensitized to ovalbumin by single intraperitoneal injection of 1 mg ovalbumin adsorbed to 100 mg […] (alum) in 1 ml sterile saline (saline control rats receive only sterile saline) on day 1, and allowed to sensitize until day 21. […] Rats are challenged with 0.5% ovalbumin in saline generated using a Devillbis nebulizer for 60 min on day 21.
Forty-eight hrs after challenge, animals are sacrificed with an overdose of intraperitoneally-delivered sodium pentobarbitol and the lungs are lavaged with cold 2×7 ml phosphate buffered saline. The recovered lavage fluid is placed on ice. The bronchoalveolar lavage fluid is centrifuged and the supernatant removed. The pellet is resuspended in phosphate buffered saline at 4° C. Cytospins are prepared and stained for differentiation and enumeration of cell types.
Test compound was administered in 300 μl corn oil (Tables 7 and 8) or water (Table 9), which were used as vehicles. Control animals received 300 μl corn oil or water alone, i.e., no drug. […] A negative value in Table 7, 8, or 9 indicates an exacerbation of the effect over the control animal.

[4] = Pharmacokinetic profile in the monkey; format: in vivo
[5] = Metabolic stability in human liver S9 fractions; format: in vitro ADME
Text: The therapeutic effectiveness of a test compound can be often directly related to its metabolic stability in vivo. The majority of known, marketed drugs are metabolized by a group of enzymes known as P450 enzymes. The S9 fraction of human liver contains all the P450 enzymes and also cytoplasmic enzymes that may be involved in the metabolism of new chemical entities. Metabolism in vitro using human S9 fractions is a standard assay to evaluate relative metabolic stability of new compounds. The test is performed as follows.
Reagents are thawed on ice and combined to make up a Master Mix as follows: Potassium phosphate (100 mM, pH 7), G6P (0.25 mM), G6PDH (2 U/ml), NADPH (1 mM), UDP (0.25 mM), APPS (0.25 mM), and S9 fraction (2 mg/ml). A volume of 498 μl of the Master mix is dispensed into each microcentrifuge tube. A volume of 2 μl of 2.5 mM test compound (final concentration of 10 μM) is dispensed into the center of the lid of the appropriate tube, and the lids gently closed to prevent mixing. Synchronous combination of test compound and master mix is achieved by simultaneous ten times inversion of the tubes, which are then incubated at 37° C. and shaken at 150 rpm for the appropriate incubation times. While incubation is in progress, all 0 time samples are mixed individually by three times inversion followed by the immediate addition of 500 μl ice cold acetonitrile with three times inversion to stop the reaction. Immediately after each 15 minutes and 30 minutes incubation is complete, ice cold acetonitrile is added to each tube and the tubes mixed by three times inversion. All sample tubes are incubated at −80° C. for a minimum of 15 minutes, thawed and remixed by inversion. Aliquots of 650 μl are transferred to Chromatographic Specialties micro-system spin filter system tubes (0.2 μm nylon membrane, C618505) and centrifuged at 13,000 rpm for 48 seconds. The sample filtrates are stored at −80° C.
Sample filtrates are analyzed on LCMS, and percent remaining after 15 and 30 minute incubation is calculated relative to the 0 minute incubation.
The metabolic stability of various compounds are summarized in Table 10 as the percent remaining after 15 or 30 minutes incubation with human liver S9 fractions.

physchem = settings: water
[6] = 5 mg/kg/day for 4 days, corn oil, lung lavage fluid, relative to control animals
[7] = 0.1 mg/kg, 4 days qd, water vehicle
[8] = 0.3 mg/kg, 4 days qd, water vehicle
[9] = 1 mg/kg, 4 days qd, water vehicle

Structure (SMILES)	inhibition at 20 µM (Jurkat clone E6.1 cells)	maximal concentration in plasma [1]	IC50 [2]	% inhibition of eosinophils [3, 6]	maximal concentration in plasma [4]	remains unchanged after 15 and even 30 minutes incubation with human S9 fractions ([5]; human, s9, 0.5 h, 10 μM, pH 7)	other results
C/C=C1/CCC2C3C(CC[C@]12C)[C@@]1(C)CC[C@H](N)CC1[C@@H](O)[C@@H]3O (some centres unmarked) [Compound 28]	29%	predictable and linear	6.8 µM	85%	predictable and linear	100%	
C/C=C1/CCC2C3C(CC[C@]12C)[C@@]1(C)CC[C@H](N)CC1[C@@H](O)[C@@H]3O (some centres unmarked) [Compound 83]	30.3%		7.7 µM	67%			solubility (physchem): > 100 mg/mL
C=C1CCC2C3C(CC[C@]12C)[C@@]1(C)CC[C@H](N)CC1[C@@H](O)[C@@H]3O (some centres unmarked) [Compound 89]		predictable and linear		57%	predictable and linear	100%	
CC1(C)CCC2=C1CCC1C2[C@@H](O)[C@H](O)C2C[C@@H](N)CC[C@]12C (some centres unmarked) [Compound 139]	26.3%		10.3 µM			100%	% inhibition of eosinophils [3, 7]: 46%; % inhibition of lymphocytes [3, 7]: 19%; % inhibition of neutrophils [3, 7]: 42%; % inhibition of eosinophils [3, 8]: 41%; % inhibition of lymphocytes [3, 8]: 34%; % inhibition of neutrophils [3, 8]: 62%; % inhibition of eosinophils [3, 9]: 42%; % inhibition of lymphocytes [3, 9]: 56%; % inhibition of neutrophils [3, 9]: 63%; % remaining after 15 min ([5]; human, s9, 15 min, 10 μM, pH 7): 109 ± 26%; % remaining after 30 min ([5]; human, s9, 30 min, 10 μM, pH 7): 100 ± 10%
CCC1(C)CCC2=C1CCC1C2C(O)C(O)C2CC(N)CCC21C.Cl (centres unmarked) [Compound 143]							remains unchanged after 15 and even 30 minutes incubation with human S9 fractions ([5]; 15 and 30 minutes, human S9 fractions): 100%
